According to the kinase profiling compilation of Christmann-Franck et al. (2016):

Legend:
Assay in all cases: radiometric filter-binding kinase assay, Kinase HotSpot
Details in all cases: compound 0.5 µM; ATP 10 µM
GRK7 (human) = GRK7 (human) (UniProt Q8WTQ7)
STK11 (human) = STK11 (human) (UniProt Q15831)
ITK (human) = ITK (human) (UniProt Q08881)
MERTK (human) = MERTK (human) (UniProt Q12866)
[1] = biological target: TYK2 JH1 catalytic (human) (UniProt P29597)
DYRK2 (human) = DYRK2 (human) (UniProt Q92630)
FYN (human) = FYN (human) (UniProt P06241)
ZAP70 (human) = ZAP70 (human) (UniProt P43403)
FRK (human) = FRK (human) (UniProt P42685)
MINK1 (human) = MINK1 (human) (UniProt Q8N4C8)
MAPK3 (human) = MAPK3 (human) (UniProt P27361)
CLK1 (human) = CLK1 (human) (UniProt P49759)
[2] = tested on: FLT4 (human), P35916 [Q890H]
MAPK8 (human) = MAPK8 (human) (UniProt P45983)
ACVRL1 (human) = ACVRL1 (human) (UniProt P37023)
CAMK2A (human) = CAMK2A (human) (UniProt Q9UQM7)
NUAK1 (human) = NUAK1 (human) (UniProt O60285)
MAPK14 (human) = MAPK14 (human) (UniProt Q16539)
DSTYK (human) = DSTYK (human) (UniProt Q6XUX3)
RPS6KA6 KD1 KD2 (human) = RPS6KA6 KD1 KD2 (human) (UniProt Q9UK32)
PAK7 (human) = PAK7 (human) (UniProt Q9P286)
[3] = tested on: MAP2K6 (human), P52564 [S207E/T211E]
STK24 (human) = STK24 (human) (UniProt Q9Y6E0)
FGFR1 (human) = FGFR1 (human) (UniProt P11362)
DYRK4 (human) = DYRK4 (human) (UniProt Q9NR20)
PAK4 (human) = PAK4 (human) (UniProt O96013)
ABL2 (human) = ABL2 (human) (UniProt P42684)
PHKG1 (human) = PHKG1 (human) (UniProt Q16816)
ROCK2 (human) = ROCK2 (human) (UniProt O75116)
STK25 (human) = STK25 (human) (UniProt O00506)
BRSK1 (human) = BRSK1 (human) (UniProt Q8TDC3)
AKT1 (human) = AKT1 (human) (UniProt P31749)
WNK2 (human) = WNK2 (human) (UniProt Q9Y3S1)
FGFR3 (human) = FGFR3 (human) (UniProt P22607)
NEK11 (human) = NEK11 (human) (UniProt Q8NG66)
STK10 (human) = STK10 (human) (UniProt O94804)
MAP3K5 (human) = MAP3K5 (human) (UniProt Q99683)
CDK2 CCNA2 (human) = CDK2 CCNA2 (human) (UniProt P24941+P20248)
NEK2 (human) = NEK2 (human) (UniProt P51955)
MAP4K5 (human) = MAP4K5 (human) (UniProt Q9Y4K4)
CAMK2B (human) = CAMK2B (human) (UniProt Q13554)
PTK2B (human) = PTK2B (human) (UniProt Q14289)

Sequence of PHKG1 (human) (Q16816 whole entry, looked up): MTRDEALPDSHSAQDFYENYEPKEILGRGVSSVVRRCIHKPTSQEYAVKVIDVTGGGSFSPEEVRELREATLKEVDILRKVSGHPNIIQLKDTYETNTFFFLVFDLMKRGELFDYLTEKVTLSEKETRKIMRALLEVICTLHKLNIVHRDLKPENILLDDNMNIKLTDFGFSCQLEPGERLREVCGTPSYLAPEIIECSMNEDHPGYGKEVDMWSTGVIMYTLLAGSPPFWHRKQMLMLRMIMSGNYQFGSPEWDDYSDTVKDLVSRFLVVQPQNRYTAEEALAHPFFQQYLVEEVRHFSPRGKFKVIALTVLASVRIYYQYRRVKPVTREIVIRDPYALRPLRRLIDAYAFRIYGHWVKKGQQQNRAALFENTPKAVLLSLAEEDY
Sequence of ZAP70 (human) (P43403 whole entry, looked up): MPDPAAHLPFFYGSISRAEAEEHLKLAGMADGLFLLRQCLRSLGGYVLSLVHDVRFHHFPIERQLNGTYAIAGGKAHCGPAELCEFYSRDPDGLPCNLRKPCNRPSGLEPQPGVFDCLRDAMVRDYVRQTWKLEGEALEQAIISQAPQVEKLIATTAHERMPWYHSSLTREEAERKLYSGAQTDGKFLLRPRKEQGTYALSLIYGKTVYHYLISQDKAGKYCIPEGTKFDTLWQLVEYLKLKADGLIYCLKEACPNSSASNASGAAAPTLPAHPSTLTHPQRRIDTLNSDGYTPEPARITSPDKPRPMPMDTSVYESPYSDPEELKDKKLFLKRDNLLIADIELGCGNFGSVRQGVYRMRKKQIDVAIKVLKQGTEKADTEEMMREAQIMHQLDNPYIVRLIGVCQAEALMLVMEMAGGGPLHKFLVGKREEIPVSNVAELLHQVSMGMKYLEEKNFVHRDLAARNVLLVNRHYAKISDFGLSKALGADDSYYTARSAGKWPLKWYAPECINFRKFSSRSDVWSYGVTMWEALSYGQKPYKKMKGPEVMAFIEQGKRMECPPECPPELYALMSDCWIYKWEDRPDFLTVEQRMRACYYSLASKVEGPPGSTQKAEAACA
Sequence of STK25 (human) (O00506 whole entry, looked up): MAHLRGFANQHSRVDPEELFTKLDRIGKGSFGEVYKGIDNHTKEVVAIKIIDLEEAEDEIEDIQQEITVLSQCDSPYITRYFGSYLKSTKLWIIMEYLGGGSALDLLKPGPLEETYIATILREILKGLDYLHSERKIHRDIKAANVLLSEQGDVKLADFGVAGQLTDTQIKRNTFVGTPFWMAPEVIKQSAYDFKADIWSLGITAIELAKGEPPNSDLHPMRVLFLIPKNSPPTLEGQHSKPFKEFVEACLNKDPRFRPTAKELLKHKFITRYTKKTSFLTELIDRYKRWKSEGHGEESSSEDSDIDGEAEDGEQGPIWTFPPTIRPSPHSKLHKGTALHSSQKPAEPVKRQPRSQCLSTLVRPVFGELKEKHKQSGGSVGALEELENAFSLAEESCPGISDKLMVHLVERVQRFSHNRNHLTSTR
Sequence of MINK1 (human) (Q8N4C8 whole entry, looked up): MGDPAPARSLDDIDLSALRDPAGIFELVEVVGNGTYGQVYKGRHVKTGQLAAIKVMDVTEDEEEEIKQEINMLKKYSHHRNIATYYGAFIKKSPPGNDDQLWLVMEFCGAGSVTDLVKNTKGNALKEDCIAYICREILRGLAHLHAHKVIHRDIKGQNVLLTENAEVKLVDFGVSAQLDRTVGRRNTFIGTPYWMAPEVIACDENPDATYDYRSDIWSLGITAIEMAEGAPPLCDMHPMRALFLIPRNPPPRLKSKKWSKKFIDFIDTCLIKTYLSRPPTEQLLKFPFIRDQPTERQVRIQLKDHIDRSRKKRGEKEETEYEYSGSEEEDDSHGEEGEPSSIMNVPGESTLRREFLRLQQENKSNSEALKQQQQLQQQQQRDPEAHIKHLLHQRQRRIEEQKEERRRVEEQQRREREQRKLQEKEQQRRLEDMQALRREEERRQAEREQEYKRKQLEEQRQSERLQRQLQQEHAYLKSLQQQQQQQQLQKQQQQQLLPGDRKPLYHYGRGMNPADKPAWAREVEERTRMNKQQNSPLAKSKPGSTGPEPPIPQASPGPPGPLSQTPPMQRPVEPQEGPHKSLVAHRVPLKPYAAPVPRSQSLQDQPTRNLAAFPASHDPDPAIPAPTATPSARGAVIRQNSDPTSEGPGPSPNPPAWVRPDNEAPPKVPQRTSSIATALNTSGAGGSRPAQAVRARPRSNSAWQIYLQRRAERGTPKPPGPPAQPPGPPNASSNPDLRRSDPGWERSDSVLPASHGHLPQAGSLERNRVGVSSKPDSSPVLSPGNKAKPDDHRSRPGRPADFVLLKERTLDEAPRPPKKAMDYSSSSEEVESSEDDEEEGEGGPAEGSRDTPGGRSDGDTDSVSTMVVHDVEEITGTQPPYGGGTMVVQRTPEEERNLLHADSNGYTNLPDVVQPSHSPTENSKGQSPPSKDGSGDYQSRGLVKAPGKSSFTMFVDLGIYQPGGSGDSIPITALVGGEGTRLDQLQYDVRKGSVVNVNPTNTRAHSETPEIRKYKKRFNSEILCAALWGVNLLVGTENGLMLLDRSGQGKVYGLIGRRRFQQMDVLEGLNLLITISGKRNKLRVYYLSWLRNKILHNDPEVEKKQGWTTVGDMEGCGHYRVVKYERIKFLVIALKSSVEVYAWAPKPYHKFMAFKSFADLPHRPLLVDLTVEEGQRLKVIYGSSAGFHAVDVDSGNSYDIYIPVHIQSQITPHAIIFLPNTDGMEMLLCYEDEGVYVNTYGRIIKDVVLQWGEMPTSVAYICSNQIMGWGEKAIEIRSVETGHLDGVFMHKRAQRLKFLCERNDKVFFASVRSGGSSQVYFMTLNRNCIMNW
Sequence of PAK7 (human) (Q9P286 whole entry, looked up): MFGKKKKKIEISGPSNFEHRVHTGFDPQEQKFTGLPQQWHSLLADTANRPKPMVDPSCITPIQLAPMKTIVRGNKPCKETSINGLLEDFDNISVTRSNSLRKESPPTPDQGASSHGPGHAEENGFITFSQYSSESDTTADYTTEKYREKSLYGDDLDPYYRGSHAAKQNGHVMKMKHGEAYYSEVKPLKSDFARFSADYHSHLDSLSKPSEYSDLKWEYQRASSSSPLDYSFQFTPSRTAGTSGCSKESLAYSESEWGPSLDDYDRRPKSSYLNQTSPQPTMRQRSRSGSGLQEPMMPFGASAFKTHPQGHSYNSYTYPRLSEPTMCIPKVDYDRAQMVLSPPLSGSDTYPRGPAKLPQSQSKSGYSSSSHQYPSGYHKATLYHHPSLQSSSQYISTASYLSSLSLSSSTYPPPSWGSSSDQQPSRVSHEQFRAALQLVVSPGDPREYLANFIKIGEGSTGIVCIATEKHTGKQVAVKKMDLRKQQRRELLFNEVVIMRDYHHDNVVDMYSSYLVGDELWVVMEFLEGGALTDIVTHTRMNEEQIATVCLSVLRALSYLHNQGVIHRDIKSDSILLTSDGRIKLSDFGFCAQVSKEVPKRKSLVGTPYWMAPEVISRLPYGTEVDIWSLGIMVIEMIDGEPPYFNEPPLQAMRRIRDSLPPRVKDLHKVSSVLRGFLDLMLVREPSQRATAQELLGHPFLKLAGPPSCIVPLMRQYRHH
Sequence of STK10 (human) (O94804 whole entry, looked up): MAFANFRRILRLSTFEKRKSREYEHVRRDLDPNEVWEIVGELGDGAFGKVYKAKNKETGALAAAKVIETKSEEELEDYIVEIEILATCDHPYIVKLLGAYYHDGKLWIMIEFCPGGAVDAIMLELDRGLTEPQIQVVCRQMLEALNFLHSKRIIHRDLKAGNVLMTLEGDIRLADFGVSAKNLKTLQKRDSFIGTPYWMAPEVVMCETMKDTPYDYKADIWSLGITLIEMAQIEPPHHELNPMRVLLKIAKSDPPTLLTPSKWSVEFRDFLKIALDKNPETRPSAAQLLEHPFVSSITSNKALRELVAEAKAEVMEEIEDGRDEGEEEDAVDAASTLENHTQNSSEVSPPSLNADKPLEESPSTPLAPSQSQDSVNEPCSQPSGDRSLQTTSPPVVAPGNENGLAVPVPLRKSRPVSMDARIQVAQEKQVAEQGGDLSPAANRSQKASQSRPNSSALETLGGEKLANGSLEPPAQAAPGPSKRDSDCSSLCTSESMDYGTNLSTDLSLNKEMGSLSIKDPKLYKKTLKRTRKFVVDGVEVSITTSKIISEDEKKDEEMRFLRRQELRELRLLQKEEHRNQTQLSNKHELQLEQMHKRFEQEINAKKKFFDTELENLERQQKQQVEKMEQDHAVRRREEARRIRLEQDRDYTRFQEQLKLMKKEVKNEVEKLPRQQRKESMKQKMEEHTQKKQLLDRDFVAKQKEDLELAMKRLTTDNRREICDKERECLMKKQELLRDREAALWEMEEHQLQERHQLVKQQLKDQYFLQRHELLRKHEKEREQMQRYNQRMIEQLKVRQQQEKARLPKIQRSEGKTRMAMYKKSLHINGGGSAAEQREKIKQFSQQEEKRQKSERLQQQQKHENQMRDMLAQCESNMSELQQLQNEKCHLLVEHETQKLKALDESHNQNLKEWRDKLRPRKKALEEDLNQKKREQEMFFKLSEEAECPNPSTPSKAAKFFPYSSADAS
Sequence of STK24 (human) (Q9Y6E0 whole entry, looked up): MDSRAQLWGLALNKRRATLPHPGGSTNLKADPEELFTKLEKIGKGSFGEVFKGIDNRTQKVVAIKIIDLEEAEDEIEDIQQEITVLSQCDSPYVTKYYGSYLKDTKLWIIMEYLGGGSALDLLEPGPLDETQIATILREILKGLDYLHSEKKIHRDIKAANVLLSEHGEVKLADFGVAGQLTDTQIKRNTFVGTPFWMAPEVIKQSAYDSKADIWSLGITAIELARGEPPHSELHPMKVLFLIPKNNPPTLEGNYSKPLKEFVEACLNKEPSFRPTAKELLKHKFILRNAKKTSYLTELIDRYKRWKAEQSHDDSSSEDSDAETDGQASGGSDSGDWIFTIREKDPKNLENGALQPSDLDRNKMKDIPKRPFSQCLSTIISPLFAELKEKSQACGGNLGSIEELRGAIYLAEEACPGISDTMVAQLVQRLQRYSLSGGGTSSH

**Q.** Which residual activity (GRK7 (human)) does the source give for `COc1ccc2c(c1)/C(=C/c1cnc[nH]1)C(O)=N2` here?
**A.** The residual activity was 99.7%.

**Q.** And the residual activity (STK11 (human))?
**A.** Its residual activity is 51.7%.

**Q.** What about the residual activity (ITK (human)) of the same compound?
**A.** Its residual activity is 94%.

**Q.** And the residual activity (MERTK (human))?
**A.** The residual activity was 84.7%.

**Q.** And the residual activity [1]?
**A.** Its residual activity is 45%.

**Q.** And the residual activity (DYRK2 (human))?
**A.** The residual activity was 76.9%.

**Q.** What about the residual activity (FYN (human)) of the same compound?
**A.** The residual activity was 81.2%.

**Q.** And the residual activity (ZAP70 (human))?
**A.** Its residual activity is 92.8%.

**Q.** What about the residual activity (FRK (human)) of the same compound?
**A.** The residual activity was 96.4%.

**Q.** And the residual activity (MINK1 (human))?
**A.** The residual activity was 57.9%.

**Q.** What about the residual activity (MAPK3 (human)) of the same compound?
**A.** Its residual activity is 87.2%.

**Q.** And the residual activity (CLK1 (human))?
**A.** Its residual activity is 87.3%.

**Q.** And the residual activity [2]?
**A.** Its residual activity is 66.4%.

**Q.** What about the residual activity (MAPK8 (human)) of the same compound?
**A.** The residual activity was 95.9%.

**Q.** What about the residual activity (ACVRL1 (human)) of the same compound?
**A.** Its residual activity is 98.7%.

**Q.** And the residual activity (CAMK2A (human))?
**A.** Its residual activity is 86.6%.

**Q.** And the residual activity (NUAK1 (human))?
**A.** The residual activity was 8.87%.

**Q.** And the residual activity (MAPK14 (human))?
**A.** The residual activity was 97.7%.

**Q.** What about the residual activity (DSTYK (human)) of the same compound?
**A.** Its residual activity is 106%.

**Q.** What about the residual activity (RPS6KA6 KD1 KD2 (human)) of the same compound?
**A.** Its residual activity is 48.8%.

**Q.** And the residual activity (PAK7 (human))?
**A.** Its residual activity is 96.9%.

**Q.** What about the residual activity [3] of the same compound?
**A.** Its residual activity is 90.1%.

**Q.** What about the residual activity (STK24 (human)) of the same compound?
**A.** Its residual activity is 53.1%.

**Q.** And the residual activity (FGFR1 (human))?
**A.** The residual activity was 73.2%.

**Q.** What about the residual activity (DYRK4 (human)) of the same compound?
**A.** The residual activity was 98.5%.

**Q.** What about the residual activity (PAK4 (human)) of the same compound?
**A.** Its residual activity is 100%.

**Q.** What about the residual activity (ABL2 (human)) of the same compound?
**A.** Its residual activity is 90.6%.

**Q.** What about the residual activity (PHKG1 (human)) of the same compound?
**A.** The residual activity was 53.8%.

**Q.** What about the residual activity (ROCK2 (human)) of the same compound?
**A.** Its residual activity is 87.4%.

**Q.** What about the residual activity (STK25 (human)) of the same compound?
**A.** Its residual activity is 86.2%.

**Q.** What about the residual activity (BRSK1 (human)) of the same compound?
**A.** The residual activity was 47.1%.

**Q.** And the residual activity (AKT1 (human))?
**A.** Its residual activity is 100%.

**Q.** And the residual activity (WNK2 (human))?
**A.** Its residual activity is 102%.

**Q.** What about the residual activity (FGFR3 (human)) of the same compound?
**A.** Its residual activity is 65%.

**Q.** And the residual activity (NEK11 (human))?
**A.** Its residual activity is 84.8%.

**Q.** What about the residual activity (STK10 (human)) of the same compound?
**A.** Its residual activity is 67%.

**Q.** And the residual activity (MAP3K5 (human))?
**A.** The residual activity was 103%.

**Q.** What does the source list for `C[C@@H]1CCN(C(=O)CC#N)C[C@@H]1N(C)c1ncnc2[nH]ccc12`?
**A.** residual activity (GRK7 (human)): 102%; residual activity (STK11 (human)): 104%; residual activity (ITK (human)): 99.1%; residual activity (MERTK (human)): 114%; residual activity [1]: 12%; residual activity (DYRK2 (human)): 112%; residual activity (ZAP70 (human)): 105%; residual activity (FRK (human)): 106%; residual activity (MINK1 (human)): 100%; residual activity (MAPK3 (human)): 98.6%; residual activity (CDK2 CCNA2 (human)): 89.5%; residual activity (CLK1 (human)): 99.5%; residual activity [2]: 97.5%; residual activity (MAPK8 (human)): 108%; residual activity (ACVRL1 (human)): 100%; residual activity (CAMK2A (human)): 99.6%; residual activity (NUAK1 (human)): 71.2%; residual activity (MAPK14 (human)): 93.4%; residual activity (DSTYK (human)): 98.4%; residual activity (RPS6KA6 KD1 KD2 (human)): 98.1%; residual activity (PAK7 (human)): 93.6%; residual activity (NEK2 (human)): 103%; residual activity [3]: 99.4%; residual activity (STK24 (human)): 96.1%; residual activity (FGFR1 (human)): 101%; residual activity (DYRK4 (human)): 97.2%; residual activity (MAP4K5 (human)): 112%; residual activity (PAK4 (human)): 99.2%; residual activity (ABL2 (human)): 90.5%; residual activity (PHKG1 (human)): 90%; residual activity (ROCK2 (human)): 69.9%; residual activity (STK25 (human)): 97.2%; residual activity (BRSK1 (human)): 102%; residual activity (AKT1 (human)): 90.3%; residual activity (WNK2 (human)): 101%; residual activity (FGFR3 (human)): 95.3%; residual activity (NEK11 (human)): 91.7%; residual activity (STK10 (human)): 92.9%; residual activity (MAP3K5 (human)): 97.8%

**Q.** With `CO[C@@H]1[C@H](N(C)C(=O)c2ccccc2)C[C@H]2O[C@]1(C)n1c3ccccc3c3c4c(c5c6ccccc6n2c5c31)C(=O)NC4` as the compound, how does the residual activity (GRK7 (human)) read?
**A.** The residual activity was 15.5%.

**Q.** And the residual activity (ITK (human))?
**A.** Its residual activity is 70.6%.

**Q.** What about the residual activity (CAMK2B (human)) of the same compound?
**A.** Its residual activity is 57.4%.

**Q.** And the residual activity (MERTK (human))?
**A.** The residual activity was 78.7%.

**Q.** And the residual activity [1]?
**A.** Its residual activity is 8.26%.

**Q.** And the residual activity (DYRK2 (human))?
**A.** Its residual activity is 108%.

**Q.** What about the residual activity (FYN (human)) of the same compound?
**A.** Its residual activity is 34%.

**Q.** What about the residual activity (ZAP70 (human)) of the same compound?
**A.** The residual activity was 65.4%.

**Q.** And the residual activity (FRK (human))?
**A.** The residual activity was 65.8%.

**Q.** And the residual activity (MINK1 (human))?
**A.** The residual activity was 29.2%.

**Q.** What about the residual activity (MAPK3 (human)) of the same compound?
**A.** The residual activity was 88.4%.

**Q.** What about the residual activity (PTK2B (human)) of the same compound?
**A.** Its residual activity is 58.2%.

**Q.** And the residual activity (CDK2 CCNA2 (human))?
**A.** The residual activity was 66.6%.

**Q.** What about the residual activity [2] of the same compound?
**A.** Its residual activity is 10.9%.

**Q.** And the residual activity (MAPK8 (human))?
**A.** The residual activity was 88.3%.

**Q.** And the residual activity (ACVRL1 (human))?
**A.** Its residual activity is 94.3%.

**Q.** What about the residual activity (CAMK2A (human)) of the same compound?
**A.** Its residual activity is 36.8%.

**Q.** What about the residual activity (NUAK1 (human)) of the same compound?
**A.** Its residual activity is 2.71%.

**Q.** What about the residual activity (MAPK14 (human)) of the same compound?
**A.** The residual activity was 93.7%.

**Q.** And the residual activity (RPS6KA6 KD1 KD2 (human))?
**A.** Its residual activity is 1.15%.

**Q.** And the residual activity (PAK7 (human))?
**A.** Its residual activity is 90.4%.

**Q.** And the residual activity (NEK2 (human))?
**A.** Its residual activity is 101%.

**Q.** And the residual activity [3]?
**A.** The residual activity was 91.4%.

**Q.** What about the residual activity (STK24 (human)) of the same compound?
**A.** The residual activity was 39.1%.

**Q.** What about the residual activity (FGFR1 (human)) of the same compound?
**A.** Its residual activity is 36.1%.

**Q.** And the residual activity (DYRK4 (human))?
**A.** The residual activity was 96.4%.

**Q.** What about the residual activity (MAP4K5 (human)) of the same compound?
**A.** The residual activity was 7.01%.

**Q.** And the residual activity (PHKG1 (human))?
**A.** Its residual activity is 2.34%.

**Q.** What about the residual activity (ROCK2 (human)) of the same compound?
**A.** The residual activity was 80.9%.

**Q.** What about the residual activity (STK25 (human)) of the same compound?
**A.** Its residual activity is 55%.

**Q.** What about the residual activity (AKT1 (human)) of the same compound?
**A.** The residual activity was 81.3%.

**Q.** What about the residual activity (WNK2 (human)) of the same compound?
**A.** Its residual activity is 111%.

**Q.** What about the residual activity (STK10 (human)) of the same compound?
**A.** Its residual activity is 19.3%.

**Q.** And the residual activity (MAP3K5 (human))?
**A.** The residual activity was 101%.
